From patent EP2385818B1, “DIOLS AS ANTIPERSPIRANT AGENTS” (Beiersdorf Aktiengesellschaft, priority 2009, dated 2010)

Test system: schweißabgebenden Schweißdrüsen im Testareal
Experiment: Sweat reduction on the forearm of volunteers, sweating induced at 75 °C, silicone imprint count of active sweat glands versus untreated area (following Keskin et al.)
Assay type: in vivo, Probanden
Conditions: for antitranspirant bzw. schweißhemmende Wirkung (Restschweißmenge im Vergleich zum unbehandelten Areal): forearm, after product application, result in words only; for AT-Wirkung, onset: measurable after the first application, no build-up by repeated application
Source text: Die überraschende Antitranspirantwirksamkeit wurde in Studien zum AT-Wirkmechanismus der aromatischen Diole in wässrigen Systemen, unterschiedlichen Ölen und O/W-Emulsion untersucht (siehe Abbildung 1). In den Abbildungen ist die Restschweißmenge im Vergleich zum unbehandelten Areal nach Produktapplikation dargestellt. 100% Restschweißmenge entsprechen 0% Schweißreduktion. Die Schweißreduktion wurde in Anlehnung an M. Keskin et al. J. Invest. Dermatol. 1998; 110:591 gemessen. Bei den Messungen werden die Testsubstanzen auf dem Unterarm der Probanden angewendet. Die Probanden werden bei 75 °C zum Schwitzen angeregt; nach Beginn der Schweißproduktion wird mittels Silikonabdrucktechnik die Anzahl der schweißabgebenden Schweißdrüsen im Testareal ermittelt und gegen ein unbehandeltes Vergleichsareal abgeglichen.

SMILES | antitranspirant bzw. schweißhemmende Wirkung (Restschweißmenge im Vergleich zum unbehandelten Areal) | AT-Wirkung, onset | AT-Leistung (preparation with up to 50 % Gew. in water, compared with preparation with 10 Gew.% Aluminiumchlorohydrat (Abbildung 1))
CC(O)C(O)c1ccccc1 (centres unmarked) | schweißhemmende Wirkung |  | 
CC(O)CCO (centres unmarked) [1,3-Butylenglykol] | antitranspirant bzw. schweißhemmende Wirkung | unmittelbare AT-Wirkung (Sofort-Effekt) | 
OCCCO [1,3-Propylenglykol] | antitranspirant bzw. schweißhemmende Wirkung | unmittelbare AT-Wirkung (Sofort-Effekt) | gute AT-Leistung
CC(O)CC(C)O (centres unmarked) [2,4-Pentylenglykol] | antitranspirant bzw. schweißhemmende Wirkung | unmittelbare AT-Wirkung (Sofort-Effekt) | 
CC(O)CCC(C)O (centres unmarked) [2,5 Hexandiol, 2,5-Hexandiol] | antitranspirant bzw. schweißhemmende Wirkung | unmittelbare AT-Wirkung (Sofort-Effekt) | 
OCCC(O)c1ccccc1 (centres unmarked) [Phenyl-1,3-Propylenglykol] | schweißhemmende Wirkung |  | 
